Source: PubChem BioAssay (NCI)
“And” between values parts separate entries of the source, which are not always exact repeats. Equal entries are not always repeated.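 Step 1: Grow cells in 96-well plates. Step 2: Expose to compound for 48 hours at 5 concentrations. Step 3: Interpolate endpoints linearly; if unreached, use highest concentration. At the GI50, growth is halved. TGI marks complete inhibition of growth.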

Test system: A549 NSCLC
Experiment: NCI tumour cell line growth inhibition, 48 h

Row | Structure (SMILES) | TGI | GI50
1 | CC1(C)OC(=O)C(=C2CCC(C(=O)Nc3cccc(C(F)(F)F)c3)N2)C(=O)O1 (configuration not stated) | > 100 µM | –
2 | CN(C)CCN1CCc2c([nH]c3ccccc23)C1c1cccnc1 (configuration not stated) | > 100 µM | –
3 | CN(C)c1ccc(C(O)C2=CC(=O)c3ccccc3C2=O)cc1 (configuration not stated) | > 100 µM | 30.3 µM
4 | Clc1ccc(CN2CCCN(Cc3ccc(Cl)cc3)C2c2cc3ccccc3c3ccccc23)cc1 | > 100 µM | –
5 | CCN(c1ccccc1)[C@H]1C(=O)N(c2ccc([N+](=O)[O-])cc2)[C@H]1c1ccc(OC)cc1 | > 100 µM | –
6 | COc1ccc(/C=C\c2cc(OC)c(OC)c(OC)c2)cc1 | > 100 µM | –
7 | COc1ccc(C2NC(=S)NC3=C2CCOc2c3ccc3ccccc23)cc1 (configuration not stated) | > 100 µM | 39 µM
8 | COc1cc(N(C)C)c(OC)cc1C=C1C=CC=C1 | > 100 µM | –
9 | C[C@H]1CC[P+](C)(c2ccccc2)C1 (some centres not stated) | > 100 µM | –
10 | C=C1CC[C@H]2C(C)=CC[C@H]3C(=C)C(=O)O[C@@H]3[C@@H]12 | > 100 µM | –
11 | COc1cc(OC)c2c(=O)c3cccc([N+](=O)[O-])c3n(C)c2c1 | > 100 µM | –
12 | COc1cccc(/C=N\NC(=O)C(C)SC(C)C(=O)N/N=C/c2cccc(OC)c2)c1 (configuration not stated) | 20.6 µM | –
13 | O=[N+]([O-])/C=C/c1ccc(Cl)cc1[N+](=O)[O-] | 30.3 µM | 6.72 µM
14 | O=C(O)c1ccccc1NCn1c(=S)sc2ccccc21 | > 100 µM | –
15 | CCCCCCCCCCCCCCCC[n+]1ccccc1 | 1.86 µM and 2.95 µM | 0.468 µM and 1.21 µM
16 | Cc1cc(C)nc(NS(=O)(=O)c2ccc(Nc3c4ccccc4nc4c(C(=O)NCCN(C)C)cccc34)cc2)n1 | 16.1 µM | –
17 | COc1cc2c(c(OC)c1OC)C(=O)NCCC2 | > 100 µM | –
18 | Cc1cc(NN=C(c2ccc(O)cc2)c2ccc(O)cc2)c([N+](=O)[O-])cc1[N+](=O)[O-] | > 100 µM | 2.47 µM
19 | COc1ccc(-c2c(N)noc2-c2cc(OC)c3c(c2)OCCO3)cc1 | > 41.6 µM | 0.0101 µM
20 | Nc1ccccc1C#Cc1ccccc1C#Cc1cccs1 | > 100 µM | 16.9 µM
21 | COc1ccc(-c2cc(/C=C/C(=O)c3ccc(N)cc3)[nH]n2)cc1 | 10.2 µM | 2.55 µM
22 | O=C1CCC(=O)N1Sc1ccccc1 | > 100 µM | –

Row | Structure (SMILES) | TGI | GI50
23 | CCOC(=O)c1c(NC(=O)c2ccc(Cl)cc2)sc2c(CN(C)C)c(O)ccc12 | 36.2 µM | 8.07 µM
24 | OCC(O)C(O)C(O)C(O)c1nnc2c(-c3ccccc3)nc3ccccc3n12 (configuration not stated) | > 100 µM | > 100 µM
25 | O=C(/C=C/c1ccccc1O)c1ccccc1Cl | > 100 µM | –
26 | CCCCC1(C(NC(=O)c2ccccc2Cl)c2ccncc2)C(=O)N(c2ccccc2)N(c2ccccc2)C1=O (configuration not stated) | > 100 µM | –
27 | N#Cc1cc(S(=O)(=O)Nc2nc3cc(Cl)ccc3o2)c(SCc2ccccc2)cc1Cl | 27.2 µM | 14.2 µM
28 | COc1ccc(/C=N/NS(=O)(=O)c2ccccc2)cc1 | > 100 µM | –
29 | C1=CC2CCC1CN2CCC1CNc2ccccc21 (configuration not stated) | > 100 µM | –
30 | Cc1ccc(OC(=O)N2C/C(=C\c3ccccc3)C(=O)/C(=C/c3ccccc3)C2)cc1 | > 100 µM | –
31 | O=C1C(=O)C2(CC1S(=O)(=O)c1ccccc1)c1ccccc1-c1ccccc12 (configuration not stated) | 63.7 µM | –
32 | O=c1oc2c3ccc4ccccc4c3n(CCN3CCCCC3)c2c2ccccc12 | > 100 µM | –
33 | O=c1cccc(Cl)[nH]1 | > 100 µM | –
34 | CN1CCc2ccccc2C(C(=O)c2ccc3c(c2)OCO3)C1=O (configuration not stated) | > 100 µM | –
35 | Cc1cc(Cl)ccc1NC(=O)C1C(=O)N(c2ccc(Cl)cc2C)C(=O)/C1=N\NC(N)=S (configuration not stated) | > 100 µM | –
36 | OCCN(CO)CO | > 100 µM | –
37 | COc1ccc(C2=Nn3c(nnc3-n3nc(C)cc3C)SC2)cc1 | > 100 µM | 0.0765 µM
38 | COc1ccc(Br)c(C(=O)N2CCc3ccccc32)c1N | > 100 µM | –
39 | COc1ccc(C)cc1NC(=S)C#N | > 100 µM | –
40 | Cc1ccc2ccc(-c3ccccc3)c3c2c1C(=O)c1ccccc1C3=O | > 100 µM | –
41 | OCC(O)C(O)C(O)c1nn(-c2ccc(F)cc2)c2nc3cc(Cl)c(Cl)cc3nc12 (configuration not stated) | 32 µM | –
42 | CSC1=Nc2c(c(C)c(-c3ccccc3)n2COC(CO)CO)C2=NC(=O)CC(C)N12 (configuration not stated) | > 100 µM | > 100 µM
43 | COc1ccc(C2Cc3cc(OC)c(OC)c(OC)c3C2)cc1 (configuration not stated) | 76.2 µM | –

Test system: HCT-116 colon
Experiment: NCI tumour cell line growth inhibition, 48 h

Row | Structure (SMILES) | TGI [µM] | GI50 [µM]
44 | CC1(C)OC(=O)C(=C2CCC(C(=O)Nc3cccc(C(F)(F)F)c3)N2)C(=O)O1 (configuration not stated) | > 100 | –
45 | CN(C)CCN1CCc2c([nH]c3ccccc23)C1c1cccnc1 (configuration not stated) | > 100 | –
46 | CN(C)c1ccc(C(O)C2=CC(=O)c3ccccc3C2=O)cc1 (configuration not stated) | 37 | 17.8
47 | Clc1ccc(CN2CCCN(Cc3ccc(Cl)cc3)C2c2cc3ccccc3c3ccccc23)cc1 | > 100 | –
48 | CCN(c1ccccc1)[C@H]1C(=O)N(c2ccc([N+](=O)[O-])cc2)[C@H]1c1ccc(OC)cc1 | > 100 | –
49 | COc1ccc(/C=C\c2cc(OC)c(OC)c(OC)c2)cc1 | > 100 | –
50 | COc1cc(N(C)C)c(OC)cc1C=C1C=CC=C1 | > 100 | –
51 | C[C@H]1CC[P+](C)(c2ccccc2)C1 (some centres not stated) | > 100 | –
52 | C=C1CC[C@H]2C(C)=CC[C@H]3C(=C)C(=O)O[C@@H]3[C@@H]12 | > 100 | –
53 | COc1cccc(/C=N\NC(=O)C(C)SC(C)C(=O)N/N=C/c2cccc(OC)c2)c1 (configuration not stated) | 34.7 | –
54 | O=[N+]([O-])/C=C/c1ccc(Cl)cc1[N+](=O)[O-] | 3.67 | 1.86
55 | O=C(O)c1ccccc1NCn1c(=S)sc2ccccc21 | > 100 | –
56 | CCCCCCCCCCCCCCCC[n+]1ccccc1 | 1.31 | 0.321
57 | Cc1cc(C)nc(NS(=O)(=O)c2ccc(Nc3c4ccccc4nc4c(C(=O)NCCN(C)C)cccc34)cc2)n1 | 15.5 | –
58 | COc1cc2c(c(OC)c1OC)C(=O)NCCC2 | > 100 | –
59 | Cc1cc(NN=C(c2ccc(O)cc2)c2ccc(O)cc2)c([N+](=O)[O-])cc1[N+](=O)[O-] | 35.7 | 3.73
60 | COc1ccc(-c2c(N)noc2-c2cc(OC)c3c(c2)OCCO3)cc1 | 6.37 | < 0.01
61 | Nc1ccccc1C#Cc1ccccc1C#Cc1cccs1 | 25.4 | 12.8
62 | O=C1CCC(=O)N1Sc1ccccc1 | > 100 | –
63 | CCOC(=O)c1c(NC(=O)c2ccc(Cl)cc2)sc2c(CN(C)C)c(O)ccc12 | 40.8 | 6.96

Row | Structure (SMILES) | TGI [µM] | GI50 [µM]
64 | OCC(O)C(O)C(O)C(O)c1nnc2c(-c3ccccc3)nc3ccccc3n12 (configuration not stated) | > 100 | > 100
65 | O=C(/C=C/c1ccccc1O)c1ccccc1Cl | > 100 | –
66 | CCCCC1(C(NC(=O)c2ccccc2Cl)c2ccncc2)C(=O)N(c2ccccc2)N(c2ccccc2)C1=O (configuration not stated) | > 100 | –
67 | N#Cc1cc(S(=O)(=O)Nc2nc3cc(Cl)ccc3o2)c(SCc2ccccc2)cc1Cl | 28.7 | 15.4
68 | COc1ccc(/C=N/NS(=O)(=O)c2ccccc2)cc1 | > 100 | –
69 | C1=CC2CCC1CN2CCC1CNc2ccccc21 (configuration not stated) | > 100 | –
70 | Cc1ccc(OC(=O)N2C/C(=C\c3ccccc3)C(=O)/C(=C/c3ccccc3)C2)cc1 | 5.28 | –
71 | O=C1C(=O)C2(CC1S(=O)(=O)c1ccccc1)c1ccccc1-c1ccccc12 (configuration not stated) | 31.9 | –
72 | O=c1oc2c3ccc4ccccc4c3n(CCN3CCCCC3)c2c2ccccc12 | > 100 | –
73 | O=c1cccc(Cl)[nH]1 | > 100 | –
74 | Cc1ccc(S(=O)C(C)C(Cl)c2ccccc2)cc1 (configuration not stated) | > 100 | –
75 | CN1CCc2ccccc2C(C(=O)c2ccc3c(c2)OCO3)C1=O (configuration not stated) | > 100 | –
76 | Cc1cc(Cl)ccc1NC(=O)C1C(=O)N(c2ccc(Cl)cc2C)C(=O)/C1=N\NC(N)=S (configuration not stated) | 46.2 | –
77 | OCCN(CO)CO | > 100 | –
78 | COc1ccc(C2=Nn3c(nnc3-n3nc(C)cc3C)SC2)cc1 | > 100 | 0.0554
79 | COc1ccc(Br)c(C(=O)N2CCc3ccccc32)c1N | > 100 | –
80 | COc1ccc(C)cc1NC(=S)C#N | > 100 | –
81 | Cc1ccc2ccc(-c3ccccc3)c3c2c1C(=O)c1ccccc1C3=O | > 100 | –
82 | OCC(O)C(O)C(O)c1nn(-c2ccc(F)cc2)c2nc3cc(Cl)c(Cl)cc3nc12 (configuration not stated) | > 100 | –
83 | CSC1=Nc2c(c(C)c(-c3ccccc3)n2COC(CO)CO)C2=NC(=O)CC(C)N12 (configuration not stated) | > 100 | > 100
